These results are taken from patent US9603900B2, “Use of PACAP for the treatment of viral infections in aquatic organisms” (Centro de Ingenieria Genetica y Biotecnologia, priority 2010, dated 2017).

Marks after values point to notes of the source that are not given here.

The subject of test [1] is IPNV. The note with it: daily baths 0.4 and 0.8 μg/mL for two hours during 20 days; cited from earlier work.
For another test, the system named is IHNV. Put plainly: Rainbow trout experimentally infected with IHNV. The note with it: amantadine 400/800 μg/L, PACAP 100/200 μg/L or combinations, doses not told apart; untreated infected 26%. It counts as in vivo, rainbow trout (O. mykiss).
The subject of test [2] is IPNV (strain ATCC VR-299). Put plainly: Rainbow trout experimentally infected with IPNV, treatment by immersion. It is filed as in vivo, rainbow trout (O. mykiss). The note with it: for Increment with respect to initial weight / Final Weight: 45 days post-infection; for Final Weight: initial 1.6 ± 0.4 g; for survival: 45 days, untreated infected 20%. How it is done:
An experiment was conducted to evaluate the effect of administration of PACAP and PACAP-ribavirin combination in rainbow trout experimentally infected with IPNV. Eight experimental groups of 50 fish each at a body weight of 1.6±0.4 g were used. The water temperature was kept at 10-12° C. • Group 1: untreated fish not exposed to the virus • Group 2: untreated fish, exposed to the virus • Group 3: Group treated with ribavirin at a dose of 400 μg/L of water, exposed to the virus • Group 4: Group treated with ribavirin at a dose of 800 μg/L of water, exposed to the virus • Group 5: Group treated with PACAP at a dose of 100 μg/L of water, exposed to the virus • Group 6: Group treated with PACAP at a dose of 200 μg/L of water, exposed to the virus. • Group 7: Group treated with the combination 1 (ribavirina 400 μg/L-PACAP 100 μg/L, exposed to the virus.
Group 8: Group treated with the combination 2 (ribavirina 800 μg/L-PACAP 200 μg/L exposed to the virus.
The animals were fed twice a day with an amount equivalent to 3% of the total corporal weight in each tank. […] Fish in Groups 1 and 2 were subjected to the same stress treatment without the antiviral compound or without the PACAP-antiviral combination. The fish in Group 1 received the same procedure with cell culture medium instead of virus. […] Treatments with PACAP or with PACAP-antiviral combination were performed 3 times a week for 20 days. The first treatments were performed 2 h after viral infection. Experimental observations were made during the first 20 days of treatments and 25 days after it concluded. During the experiment (45 days) deaths and abnormal behavior of the fish were monitored.

The subject of test [3] is IPNV (strain ATCC VR-299). Put plainly: Atlantic salmon experimentally infected with IPNV, treatment by immersion. It is filed as in vivo, Atlantic salmon (Salmo salar). To be noted: for Increment / Final Weight: 45 days post-infection; for Final Weight: initial 1.2 ± 0.3 g; for survival: 45 days, untreated infected 30%. The method, then:
An experiment was conducted to evaluate the effect of the administration of PACAP and PACAP-ribavirin combination for salmon (Salmo salar) experimentally infected with IPNV. Eight experimental groups were performed of 50 fish and a size of 1.2±0.3 g each one and were kept in water at 10-12° C.: • Group 1: untreated fish not exposed to the virus • Group 2: untreated fish, exposed to the virus • Group 3: Group treated with ribavirin at a dose of 400 μg/L of water, exposed to the virus • Group 4: Group treated with ribavirin at a dose of 800 μg/L of water, exposed to the virus • Group 5: Group treated with PACAP at a dose of 100 μg/L of water, exposed to the virus • Group 6: Group treated with PACAP at a dose of 200 μg/L, exposed to the virus • Group 7: Group treated with ribavirin 400 μg/L-PACAP 100 μg/L combination, exposed to the virus • Group 8: Group treated with ribavirin 800 μg/L-PACAP 200 μg/L combination, exposed to the virus.
The animals were fed twice a day with an amount equivalent to 3% of the total corporal weight in each tank. […] Treatments were performed 3 times a week for 20 days. Experimental observations were made during this period and 25 days after the last treatments. During the 45 days of the experiment deaths and abnormal behavior of the fish were monitored. Fish in Groups 1 and 2 were subjected to the same stress produced by the treatment without the antiviral compound or the combination of PACAP-antiviral. The fish in Group 1 received the same procedure with cell culture medium instead of the virus.

Test [4] deals with IPNV. Put plainly: Oysters experimentally infected with IPNV, viral titer in hepatopancreas. To be noted: two weeks after challenge, untreated infected 8.1. It is filed as in vivo, oysters of the species Pecten maximus.
Protocol: Eight experimental groups were performed of 30 adult oysters each one and were kept in 250 L of filtered sea water at 10° C.
Treatments were performed 3 times a week for 20 days. Oysters were challenged by exposure to 25 L of water containing 10^7 TCID50 mL^−1 in tanks of 80 L. After 6 h the water was replaced at a slow flow of 1 L/min and at 12 h the flow was increased to 3 L/min.
Two weeks after challenge hepatopancreas samples were taken and determined the viral titer.
Another test relates to PAC-1 receptor. Put plainly: PAC-1 receptor expression (qPCR) in head kidney leukocytes treated with poly I:C. To be noted: poly I:C 30 μg/mL, 4, 24 and 48 hours. It is filed as cell-based, rainbow trout (O. mykiss). How it is done:
Juvenile rainbow trout (O. mykiss) was used from 9 to 12 grams and 7 months of age, VHSV and IPNV free. Fish were maintained at 14° C. with water circulation. Food was administered twice a day ad libitum. The virus, VHSV (strain 0771) and IPNV (strain Sp) were propagated in the rainbow trout gonad cell line RTG-2 (Sena and Rio (1975) Infect Immun 11:815-22). Cells were grown in minimal essential medium (MEM, Invitrogen, USA) supplemented with 10% of fetal calf serum (FCS, Invitrogen) containing 100 IU/mL of penicillin and 100 μg/mL of streptomycin. The viruses were inoculated into RTG-2 cells grown in MEM with antibiotics and 2% FCS at 14° C. […] The viral titers were determined in 96-well plates as reported by Reed and Muench (Reed and Muench ([…]) J Hyg 27:280-9). […]
Finally, total RNA was purified from leukocytes cultures using the method described by Chomczynski and Sacchi (Chomczynski and Sacchi (1987) Anal. Biochem. 162:156-9) to evaluate the expression levels of the PAC-1 receptor on leukocytes untreated and treated with Poly I:C or infected with viruses. […] For quantitative PCR reactions (qPCR) was used a mixture of PCR from commercial sources: Power SYBR Green PCR Master Mix (Applied Biosystems). […] The results were expressed as 2^−ΔCt, where ΔCt is equal to the remainder of the gene Ct value minus the assessed value of Ct normalizer gene (EF 1α).
A general note: In qPCR the cycle at which signal appears reflects the starting amount.

In a further test the test system is VPAC-1 receptor. Put plainly: VPAC-1 receptor expression (qPCR) in anterior kidney leukocytes treated with poly I:C. It counts as cell-based, rainbow trout (Oncorhynchus mykiss). To be noted: cultured leukocytes, poly I:C, 4, 24 and 48 hours.
The mark [5] stands for this setting: Groups 3, 5, 7: ribavirin 400 μg/L, PACAP 100 μg/L or combination 1.
The mark [6] stands for this setting: Groups 4, 6, 8: ribavirin 800 μg/L, PACAP 200 μg/L or combination 2.
[7] abbreviates: Groups 3, 5, 7: ribavirin 400 μg/L, PACAP 100 μg/L or both.
[8] abbreviates: Groups 4, 6, 8: ribavirin 800 μg/L, PACAP 200 μg/L or both.

Protocol for IHNV: The fish were challenged by immersion with 5.9×10^3 pfu/ml virus in 20 L of water with aeration for 1 hour.

In the case of `C#Cc1c(C(N)=O)ncn1[C@@H]1O[C@H](CO)[C@@H](O)[C@H]1O` [EICAR, 5-ethynyl-1-β-D-ribofuranosylimidazole-carboxamide], the “viral load in liver and spleen (RT-PCR)” value in the test with IPNV [1] is given as “decrease in viral load”.

For the molecule `NC12CC3CC(CC(C3)C1)C2` [amantadine], the survival in the test on IHNV stood at 46%.

Consider `NC(=O)c1ncn([C@@H]2O[C@H](CO)[C@@H](O)[C@H]2O)n1` [ribavirin], for which the “Increment with respect to initial weight” value in test [2] (setting [5]) came to 137%; in test [2] (setting [6]) it was 131%. Moreover, the “Final Weight” value in test [2] (setting [5]) is recorded as 3.8 ± 1.1^c g; in test [2] (setting [6]) it was 3.7 ± 1.0^c g; in test [3] (setting [7]), 2.2 ± 0.4^c g; in test [3] (setting [8]) it was 2.3 ± 0.5^c g. The survival in test [2] (setting [5]) is listed as 68%; in test [2] (setting [6]) it was 70%; in test [3] (high dose: ribavirin 800 μg/L or PACAP 200 μg/L), 76%; in test [3] (low dose: ribavirin 400 μg/L or PACAP 100 μg/L), 70%. Also, the “day on which appetite was recovered” value in test [2] (rainbow trout, IPNV, both doses, untreated infected: day 15) is 13 days. Further, in test [2] (rainbow trout, IPNV, treatments 3 times a week for 20 days, both doses, untreated infected: day 6), the “day on which signs of disease were detected” value turned out to be 8 days. For the same molecule, the “day on which early signs of disease were detected” value in test [3] (Atlantic salmon, IPNV, both doses, untreated infected: day 6) was 10 days. Moreover, the Increment in test [3] (setting [7]) came to 83%; in test [3] (setting [8]), 92%. Moreover, the figures for the “IPNV average viral titer in the hepatopancreas” value with IPNV [4] (setting [5]) and with IPNV [4] (setting [6]) were 5.4^b log10TCID50 g^−1 and 4.3^b log10TCID50 g^−1, respectively.

For the molecule poly I:C, the “levels of PAC-1 expression relative to EF1α” value in the test on PAC-1 receptor was “over-expressed”. The “levels of VPAC-1 expression relative to EF1α” value in the test on VPAC-1 receptor is on record as “over-expressed”.
